The text below walks through data of patent publication US10358469B2, “Methods and pharmaceutical compositions for the treatment of cancer” (INSERM (INSTITUT NATIONAL DE LA SANTÉ ET DE LA RECHERCHE …, priority 2014, dated 2019).

Data set [1] concerns D3H2LN cells. The data set is described as follows: Transwell Boyden chamber migration assay, D3H2LN cells. It is filed as cell-based. To be noted: 2 μM, toward 10% FBS, 12 h, FIG. 7A. Here is the method: (§1) FIG. 7: Antp-AAC-11-LZ (363-399) peptide inhibits cell migration and invasion. (A) D3H2LN cells were added to the upper well of modified Boyden chamber (transwell) plates with a vehicle or with either 2 μM of the Antp-AAC-11-LZ (363-399) peptide or the Antp-only peptide and subjected to a transwell migration assay as described under Materials and methods. The cells were allowed to migrate toward 10% FBS for 12 […]h. Triplicate wells were used for each of three independent experiments. The results are expressed relative to the migration of the untreated cells (=100%). Column: Mean of three experiments. Bar: s.e. P-value was determined by Student's t-test (*P<0.01). (B) D3H2LN cells were seeded in a Matrigel-coated Boyden chamber with a vehicle or with either 2 μM of the Antp-AAC-11-LZ (363-399) peptide or the Antp-only peptide and subjected to a transwell migration assay as described under Materials and methods. The cells were allowed to migrate toward 10% FBS for 24 […]h. Triplicate wells were used for each of three independent experiments. The results are expressed relative to the migration of the untreated cells (=100%). Column: Mean of three experiments. Bar: s.e. P-value was determined by Student's t-test (*P<0.01) […]

In data set [2] the test system is leukemic cells isolated from hMRP8-PML/RARα transgenic mice. The data set is described as follows: Acute promyelocytic leukemia (APL) mouse model, survival. It is filed as in vivo. How it is done:
FIG. 9: Antp-AAC-11-LZ (363-399) peptide treatment of leukemic mice protects against disease progression. Mice were challenged with 10^4 leukemic cells isolated from hMRP8-PML/RARα transgenic mice, allowed to engraft for 10 d, and were then injected intraperitonaly each day for 7 consecutive days with Antp-AAC-11-LZ (363-399) peptide (1.8 mg/kg) or vehicle (normal saline solution), or subcutaneously implanted with a 21-d release pellet containing 5 mg ATRA (n=6 for each treatment). Mice were monitored for survival.
We use an established in vivo APL model based on syngenic grafts of leukemic blasts from hMRP8-PML/RARα transgenic mice, as described by Brown et al. (Brown et al., 1997). This model mimics human APL, both in its biological characteristics and its response to conventional therapeutic drugs such as all-trans retinoic acid (ATRA) and 100% of the mice die of the disease (Brown et al., 1997; Kogan et al., 2000; Lallemand-Breitenbach et al., 1999). […] leukemic cells isolated from bone marrow, spleen, or lymph nodes of leukemic hMRP8-PML/RARα transgenic mice (Brown et al., 1997) were injected into the tail vein of 6-7 week old syngeneic FVB/N mice. Establishment of leukemia was assessed by the appearance of high leukocyte and low platelet counts at around day 8 (Brown et al., 1997). Ten days after transplantation, mice implanted with leukemic cells were randomly assigned to either type of treatment (n=6). Antp-AAC-11-LZ (363-399) peptide (1.8 mg/kg) or vehicle (normal saline solution) was injected intraperitonaly each day for 7 consecutive days. Retinoic acid was administrated by subcutaneous implantation of a 21-d release pellet containing 5 mg ATRA (Innovative Research of America). Mice were then monitored for survival.

A short description of data set [3]: Toxicity of peptide injection in nude mice. To be noted: i.p. twice per week for 4 weeks.
Description: Nude mice were injected intraperitoneally twice a week for 4 weeks with normal saline solution or the indicated doses of Antp-AAC-11-LZ (363-399) peptide (n=3-4 mice per group) and were monitored daily for body weight (mean±s.e.m).
Nude mice were injected intraperitoneally twice a week for 4 weeks with normal saline solution or the indicated doses of Antp-AAC-11-LZ (377-399) peptide (n=3-4 mice per group) and were monitored daily for body weight (mean±s.e.m).
We first evaluated the toxicity of the Antp-AAC-11-LZ (363-399) peptide in nude mice that were injected intraperitoneally twice per week for 4 weeks with the Antp-AAC-11-LZ (363-399) peptide or normal saline solution (dose range: 0.8-4.8 mg peptide/kg body weight; n=3-4 mice per group).
We first evaluated the toxicity of the Antp-AAC-11-LZ (377-399) peptide in nude mice that were injected intraperitoneally twice per week for 4 weeks with the Antp-AAC-11-LZ (377-399) peptide or normal saline solution (dose range: 1-6 mg peptide/kg body weight; n=3-4 mice per group).
The test system of data set [4] is D3H2LN cells. The data set is described as follows: Matrigel invasion assay, D3H2LN cells. The note with it: 2 μM, toward 10% FBS, 24 h, FIG. 7B. It is filed as cell-based. How it is done: as §1

Regarding “Ac-RQIKIWFKKQNRRMKWKKAKLNAEKLKDFKIRLQYFARGLQVYIRQLRLALQGKT-NH2 [Antp-AAC-11-LZ (363-399)]”, in data set [1], the cell migration entry is on record as “substantially decreased”. Besides, in data set [2] (n=6 per treatment), the “mice surviving up to 67 d” value is given as “Four of 6” and the “mice surviving up to 76 d” value was 2. The mean survival time in data set [2] (peptide 1.8 mg/kg i.p. daily for 7 days, ATRA 5 mg 21-d release pellet s.c., from day 10 after graft, n=6) amounted to 68.5 days. Besides, the mortality entry in data set [3] (0.8-4.8 mg peptide/kg body weight) was “No mice died”. The “body weight difference between groups” value in data set [3] (0.8-4.8 mg peptide/kg body weight, FIG. 8A) is given as “no significant difference”. Moreover, in data set [3] (0.8-4.8 mg peptide/kg, end of experiment), the “toxicity to kidney, lungs, heart, liver, pancreas and spleen” value was “no obvious toxicity”. Also, in data set [4], the cell invasion entry was “prevented invasion”.
